# Experimental data reported in paper PMC3056768, “Conjugation to the Cell-Penetrating Peptide TAT Potentiates the Photodynamic Effect of Carboxytetramethylrhodamine” (PLoS ONE, 2011).
# Entries after “also recorded” stand apart in the source; their conditions may differ.
# What was measured:
# HeLa cells [1] = test: Photocytotoxicity of endocytosed peptide after light irradiation (SYTOX Blue staining, membrane blebbing); assay type: cell-based
# Method: (§1) HeLa (human cervical adenocarcinoma), COS-7 (SV40 transformed African green monkey kidney fibroblast-like cell line) were obtained from ATCC. COLO 316 (human ovarian carcinoma) were obtained from Robert Burghardt (Department of Veterinary Integrative Biosciences, Texas A&M University). Cells were cultured in DMEM supplemented with 10% fetal bovine serum (FBS) and maintained at 37°C in a humidified environment with 5% CO2. Cells were plated in 8-well dishes so that the cells were 70% confluent after 24 h, washed 3 times with L-15 media, incubated with 3 to 10 µM peptides at 37°C for 1 h, washed 3 times with L-15, and imaged. Alternatively, cells were incubated in L-15 at 4°C to inhibit the endocytic uptake of peptides. In this case, cells were imaged with the peptide still present in solution and the low temperature was maintained for the entire duration of imaging. For photosensitization, cells were exposed to light (λex = 560±20 nm) for the indicated time points. Plasma membrane disruption was detected by addition of the cell-impermeable DNA stain SYTOX Blue (5 µM) during or after photosensitization.
# Ten to twenty images were acquired for each experiment.
# Irradiances at the specimen were 100 mW/cm^2 when no neutral density filter and no objective were present in the light path (and, for instance 5 mW/cm^2 when ND4 was inserted). Irradiances were measured using a monochromic photometer (model 840-c, Newport, Irvine, CA). Irradiation area has a diameter of 1.3 cm without objective but the light beam is focused into an area of 3×10^−3 cm^2 by the 100× objective. Irradiances can therefore be approximated to be at […] with ND4 or ND1, respectively. Irradiances provided in the figure legends are based on these calculations. To confirm that the irradiances measured on the microscope were accurate, experiments were also reproduced, when possible, using light illumination with a collimated light source from Oriel (Stratford, CT) equipped with a 500 W Hg lamp. Selective irradiation at 560 nm was performed using an analytical line filter (Oriel, 9.4 nm bandwidth). In this case, irradiances of the light beam (diameter of 2.5 cm) could be measured more precisely using the monochromic photometer.
# HeLa cells [2] = test: Toxicity in the absence of light (SYTOX green / DAPI); assay type: cell-based, human; conditions: concentrations up to 25 µM, 1 h in L-15 at 37°C, washed, additional 4 h, average of 3 experiments
# Method: Supplementary file pone.0017732.s001.tif: Figure S1 Toxicity of TMR-TAT toward HeLa cells in the absence of light. TMR-TAT was incubated at the concentration indicated with cells for 1 hour in L-15 at 37°C. Cells were washed with fresh L-15 and incubated for an additional 4 h. Cells were then treated with L-15 containing DAPI and SYTOX® green. DAPI stains the nucleus of all cells while SYTOX® green only stains the nucleus of dead cells. Cells were imaged by fluorescence microscopy using the DAPI and FITC filters to detect DAPI and SYTOX® green, respectively. For each experiments, five representative images were acquired using the 20× objective and the percentage of dead cells were calculated from the ratio of cells stained by SYTOX® green divided by the number of cells stained by DAPI. The reported data is the average of 3 experiments (3×5 images, ≥1000 cells/experiments) and the error bar represents the standard deviation. (TIF) Click here for additional data file.
# COS-7 cells = test: Photosensitization of endocytosed peptide; assay type: cell-based, African green monkey; conditions: COS-7, 3 µM for 1 h, washed, 560 nm
# Method: as §1, with “In this case, cells were imaged with the peptide still present in solution and the low temperature was maintained for the entire duration of imaging. For photosensitization, cells were exposed to light (λex = 560±20 nm) for the indicated time points.” left out
# TMR-TAT induces cell-death upon light irradiation in HeLa or COS-7 cells. […] Cells were observed using a 10× objective using bright field and fluorescence imaging (CFP filter to detect SYTOX® Blue). […] Cells were observed using a 100× objective using bright field and fluorescence imaging (RFP filter to detect TMR-TAT, pseudocolored red, and CFP filter to detect SYTOX® Blue, pseudo colored blue). […]
smiles,measurement,setting,value
CN(C)c1ccc2c(c1)Oc1cc(N(C)C)ccc1C21OC(=O)c2cc(C(=O)NCC(=O)N[C@@H](CCCNC(=N)N)C(=O)N[C@@H](CCCCN)C(=O)N[C@@H](CCCCN)C(=O)N[C@@H](CCCNC(=N)N)C(=O)N[C@@H](CCCNC(=N)N)C(=O)N[C@@H](CCC(N)=O)C(=O)N[C@@H](CCCNC(=N)N)C(=O)N[C@@H](CCCNC(=N)N)C(=O)N[C@@H](CCCNC(=N)N)C(=O)NCC(N)=O)ccc21 [TMR-TAT],"cell destruction, percentage of irradiated cells (SYTOX Blue staining)","HeLa cells [1]; endocytosed peptide, 2 sec irradiation at 560 nm, radiant exposure approx. 40 J/cm^2, at least 3000 cells, reproduced at least 3 times",more than 95%
same,photocytotoxicity / cell death after irradiation at 560 nm,"HeLa cells [1]; incubation 1 h 37°C (3 µM; TMR-K9 10 µM), washed, irradiated at 560±20 nm",rapid necrosis; also recorded: plasma membrane damage and cell death
same,cytotoxicity in the absence of light,HeLa cells [2],negligible
same,"photo-induced activities (endosomal release, blebbing, SYTOX Blue staining)",COS-7 cells,"could be reproduced; also recorded: membrane blebs are formed on the cell surface, and the nuclei of cells are stained by SYTOX® Blue"
